US9238656B2, “Imidazo[4,5-b]pyridine derivatives as ALK and JAK modulators for the treatment of proliferative disorders” (priority 2012, dated 2016)

Assays:
[1] = target: baculovirus-expressed JAK2 kinase (Homo sapiens, UniProt O60674); experiment: biochemical; conditions: 0.2 μM ATP; read-out: JAK2 Potency
How it was run: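 Time-resolved fluorescence kinase assay using 15 ng/mL baculovirus-expressed JAK2 on Neutravidin-captured biotinylated 15-mer peptide substrate, reaction 20 min at room temperature. IC50 from percent inhibition versus log concentration, sigmoidal variable-slope fit.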

[2] = target: baculovirus-expressed ALK (Homo sapiens, UniProt Q9UM73); experiment: ALK kinase inhibition, TRF/ELISA; format: biochemical; conditions: read-out: ALK Potency
How it was run: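 Plates were coated with GST-PLC-γ substrate (10 μg/mL) and the reaction was started with 30 ng/mL ALK, running 15 min at 37° C. Phosphotyrosine was detected by time-resolved fluorescence with Eu-labeled PT66 antibody. IC50s came from variable-slope sigmoidal fits of percent inhibition versus log concentration.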

Sequence of baculovirus-expressed JAK2 kinase (O60674 whole entry): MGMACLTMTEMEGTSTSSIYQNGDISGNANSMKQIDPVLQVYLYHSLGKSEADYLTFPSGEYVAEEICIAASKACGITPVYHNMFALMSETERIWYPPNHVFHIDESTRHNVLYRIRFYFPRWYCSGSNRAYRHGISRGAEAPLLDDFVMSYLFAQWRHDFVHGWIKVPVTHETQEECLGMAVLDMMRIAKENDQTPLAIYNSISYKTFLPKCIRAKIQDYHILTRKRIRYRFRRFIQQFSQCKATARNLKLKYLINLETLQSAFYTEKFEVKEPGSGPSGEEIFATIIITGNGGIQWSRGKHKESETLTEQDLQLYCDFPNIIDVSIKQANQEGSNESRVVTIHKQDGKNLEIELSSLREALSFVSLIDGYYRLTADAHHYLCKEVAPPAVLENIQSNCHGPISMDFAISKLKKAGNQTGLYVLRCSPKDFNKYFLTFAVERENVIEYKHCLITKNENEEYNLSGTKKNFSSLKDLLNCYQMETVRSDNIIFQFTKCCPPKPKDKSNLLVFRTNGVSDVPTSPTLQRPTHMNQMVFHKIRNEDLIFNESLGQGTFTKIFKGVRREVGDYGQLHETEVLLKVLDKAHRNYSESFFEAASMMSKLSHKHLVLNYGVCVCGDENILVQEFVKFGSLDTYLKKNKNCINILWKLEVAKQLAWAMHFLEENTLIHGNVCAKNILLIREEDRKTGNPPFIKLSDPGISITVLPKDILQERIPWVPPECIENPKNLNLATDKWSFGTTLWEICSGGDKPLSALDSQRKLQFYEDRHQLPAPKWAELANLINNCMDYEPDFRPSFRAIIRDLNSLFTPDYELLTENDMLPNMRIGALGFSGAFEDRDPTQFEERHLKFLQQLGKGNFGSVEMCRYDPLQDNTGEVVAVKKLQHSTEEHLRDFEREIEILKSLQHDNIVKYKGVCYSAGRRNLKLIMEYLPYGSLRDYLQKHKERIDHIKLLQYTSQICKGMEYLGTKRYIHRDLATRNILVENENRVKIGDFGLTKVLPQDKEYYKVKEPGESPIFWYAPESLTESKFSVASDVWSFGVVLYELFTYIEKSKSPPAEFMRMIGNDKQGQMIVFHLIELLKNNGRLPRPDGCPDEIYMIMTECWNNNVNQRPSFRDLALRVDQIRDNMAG
Sequence of baculovirus-expressed ALK (Q9UM73 19-1620): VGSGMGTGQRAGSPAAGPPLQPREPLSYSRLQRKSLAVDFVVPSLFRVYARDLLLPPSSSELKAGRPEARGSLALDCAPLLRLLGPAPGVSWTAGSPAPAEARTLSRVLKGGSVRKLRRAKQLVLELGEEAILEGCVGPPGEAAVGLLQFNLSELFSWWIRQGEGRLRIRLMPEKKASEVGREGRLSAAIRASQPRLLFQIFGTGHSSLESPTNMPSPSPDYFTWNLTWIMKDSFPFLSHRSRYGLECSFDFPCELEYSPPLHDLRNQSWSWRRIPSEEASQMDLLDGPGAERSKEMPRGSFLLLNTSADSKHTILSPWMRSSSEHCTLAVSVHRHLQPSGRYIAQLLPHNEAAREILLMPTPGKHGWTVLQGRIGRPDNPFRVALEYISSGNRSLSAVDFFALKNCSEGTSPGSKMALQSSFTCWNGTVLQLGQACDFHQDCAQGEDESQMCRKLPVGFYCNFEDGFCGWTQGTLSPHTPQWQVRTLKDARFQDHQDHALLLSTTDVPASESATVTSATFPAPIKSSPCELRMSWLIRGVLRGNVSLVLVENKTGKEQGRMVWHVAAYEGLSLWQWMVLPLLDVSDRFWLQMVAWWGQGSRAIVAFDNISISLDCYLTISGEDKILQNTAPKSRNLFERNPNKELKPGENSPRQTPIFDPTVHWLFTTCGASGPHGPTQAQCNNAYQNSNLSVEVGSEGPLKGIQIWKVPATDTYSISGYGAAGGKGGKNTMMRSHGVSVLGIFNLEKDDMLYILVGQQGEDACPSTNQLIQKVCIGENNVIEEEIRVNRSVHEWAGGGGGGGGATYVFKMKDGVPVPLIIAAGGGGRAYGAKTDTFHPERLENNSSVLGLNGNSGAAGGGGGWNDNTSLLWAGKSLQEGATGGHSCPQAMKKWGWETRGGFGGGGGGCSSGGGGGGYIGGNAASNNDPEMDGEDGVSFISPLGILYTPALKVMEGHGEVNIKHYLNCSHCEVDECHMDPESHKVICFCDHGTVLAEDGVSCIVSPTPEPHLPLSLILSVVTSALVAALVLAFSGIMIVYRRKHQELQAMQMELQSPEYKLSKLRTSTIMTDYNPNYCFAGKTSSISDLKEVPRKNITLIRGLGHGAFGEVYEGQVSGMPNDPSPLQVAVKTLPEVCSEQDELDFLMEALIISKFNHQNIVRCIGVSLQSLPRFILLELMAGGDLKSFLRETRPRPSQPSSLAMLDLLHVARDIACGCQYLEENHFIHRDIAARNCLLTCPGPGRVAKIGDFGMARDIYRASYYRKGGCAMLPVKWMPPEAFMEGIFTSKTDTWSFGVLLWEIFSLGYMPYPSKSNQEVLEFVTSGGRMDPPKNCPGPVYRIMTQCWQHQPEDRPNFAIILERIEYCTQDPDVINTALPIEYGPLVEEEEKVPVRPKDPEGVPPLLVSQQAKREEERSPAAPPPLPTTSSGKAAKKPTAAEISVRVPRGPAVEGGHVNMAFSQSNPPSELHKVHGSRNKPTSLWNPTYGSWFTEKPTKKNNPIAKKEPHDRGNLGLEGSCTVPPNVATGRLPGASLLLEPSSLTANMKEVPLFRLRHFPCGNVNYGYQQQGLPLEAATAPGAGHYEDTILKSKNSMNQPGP

SMILES	IC50 [1]	melting point	IC50 [2]
NC(=O)[C@@H]1[C@H](Nc2c(Br)cnc3[nH]c(-c4ccsc4)nc23)[C@H]2C=C[C@@H]1C2 [Compound CXI, (1S,2S,3R,4R)-3-(6-Bromo-2-thiophen-3-yl-3H-imidazo[4,5-b]pyridin-7-ylamino)-bicyclo[2.2.1]hept-5-ene-2-carboxylic acid amide]	< 0.1 µM	238 to 241 °C	< 0.1 µM
NC(=O)[C@@H]1[C@H](Nc2c(Cl)cnc3[nH]c(-c4ccc(C(=O)NC(CO)C(=O)O)cc4)nc23)[C@H]2C=C[C@@H]1C2 (stereo partly drawn) [Compound CCXXX, 2-(4-(7-((1R,2R,3S,4S)-3-carbamoylbicyclo(2.2.1)hept-5-en-2-ylamino)-6-chloro-3H-imidazo[4,5-b]pyridine-2-yl)benzamido)-3-hydroxypropanoic acid]	< 0.1 µM	186 °C	0.1 to 1 µM
NC(=O)[C@@H]1[C@H](Nc2c(Br)cnc3[nH]c(-c4cccnc4N4CCOCC4)nc23)[C@H]2C=C[C@@H]1C2 [Compound CII, (1S,2S,3R,4R)-3-[6-Bromo-2-(2-morpholin-4-yl-pyridin-3-yl)-3H-imidazo[4,5-b]pyridin-7-ylamino]-bicyclo[2.2.1]hept-5-ene-2-carboxylic acid amide]	1 to 10 µM	150 °C	1 to 10 µM
NC(=O)[C@@H]1[C@H](Nc2c(Cl)cnc3[nH]c(-c4cccc(C(=O)N5CCNC(C(=O)O)C5)c4)nc23)[C@H]2C=C[C@@H]1C2 (stereo partly drawn) [Compound CCXXV, 4-(3-(7-((1R,2R,3S,4S)-3-carbamoylbicyclo[2.2.1]hept-5-en-2-ylamino)-6-chloro-3H-imidazo[4,5-b]pyridine-2-yl)benzoyl)piperazine-2-carboxylic acid]	< 0.1 µM	261 °C	0.1 to 1 µM
COc1ccncc1-c1nc2c(N[C@H]3[C@@H](C(N)=O)[C@@H]4C=C[C@H]3C4)c(Br)cnc2[nH]1 [Compound CIII, (1S,2S,3R,4R)-3-[6-Bromo-2-(4-methoxy-pyridin-3-yl)-3H-imidazo[4,5-b]pyridin-7-ylamino]-bicyclo[2.2.1]hept-5-ene-2-carboxylic acid amide]	0.1 to 1 µM	160 °C	< 0.1 µM
COc1cccc(OC)c1-c1nc2c(N[C@H]3[C@@H](C(N)=O)[C@@H]4C=C[C@H]3C4)c(Br)cnc2[nH]1 [Compound CVI, (1S,2S,3R,4R)-3-[6-Bromo-2-(2,6-dimethoxy-phenyl)-3H-imidazo[4,5-b]pyridin-7-ylamino]-bicyclo[2.2.1]hept-5-ene-2-carboxylic acid amide]	1 to 10 µM	194 to 197 °C	1 to 10 µM
COC[C@@H](O)CN1CCC(c2ccc(-c3nc4c(N[C@H]5[C@@H](C(N)=O)[C@@H]6C=C[C@H]5C6)c(Cl)cnc4[nH]3)c(OC)c2)CC1 [Compound CXIX, (1S,2S,3R,4R)-3-(6-Chloro-2-{4-[1-((S)-2-hydroxy-3-methoxy-propyl)-piperidin-4-yl]-2-methoxy-phenyl}-3H-imidazo[4,5-b]pyridin-7-ylamino)-bicyclo[2.2.1]hept-5-ene-2-carboxylic acid amide]	< 0.1 µM	189 to 191 °C	< 0.1 µM
Cn1cccc1-c1nc2c(N[C@H]3[C@@H](C(N)=O)[C@@H]4C=C[C@H]3C4)c(Br)cnc2[nH]1 [Compound CIX, (1S,2S,3R,4R)-3-[6-Bromo-2-(1-methyl-1H-pyrrol-2-yl)-3H-imidazo[4,5-b]pyridin-7-ylamino]-bicyclo[2.2.1]hept-5-ene-2-carboxylic acid amide]	< 0.1 µM	293 to 295 °C	< 0.1 µM
CN1CCN(c2ccc(-c3nc4c(N[C@@H]5[C@H]6CC[C@H](C6)[C@@H]5C(N)=O)c(Br)cnc4[nH]3)cc2)CC1 [Compound CXIII, (1R,2S,3R,4S)-3-{6-Bromo-2-[4-(4-methyl-piperazin-1-yl)-phenyl]-3H-imidazo[4,5-b]pyridin-7-ylamino}-bicyclo[2.2.1]heptane-2-carboxylic acid amide]	< 0.1 µM	256 to 258 °C	< 0.1 µM

The remaining lines, values ahead:

IC50 [1]	melting point	IC50 [2]	SMILES
< 0.1 µM	157 to 159 °C	< 0.1 µM	COc1cc(CN2CCN(C[C@@H](C)O)CC2)ccc1-c1nc2c(N[C@H]3[C@@H](C(N)=O)[C@@H]4C=C[C@H]3C4)c(Cl)cnc2[nH]1 [Compound XLIV, (1S,2S,3R,4R)-3-(6-Chloro-2-{4-[4-((R)-2-hydroxypropyl)-piperazin-1-ylmethyl]-2-methoxyphenyl}-3H-imidazo[4,5-b]pyridine-7-ylamino)-bicyclo[2.2.1]hept-5-ene-2-carboxylic acid amide]
< 0.1 µM	116 to 122 °C	< 0.1 µM	COC[C@H](O)CN1CCC(c2ccc(-c3nc4c(N[C@H]5[C@@H](C(N)=O)[C@@H]6C=C[C@H]5C6)c(Cl)cnc4[nH]3)c(OC)c2)CC1 [Compound LIV]
< 0.1 µM	185 to 195 °C	< 0.1 µM	COc1cc(N2CCN(C)CC2)ccc1-c1nc2c(N[C@H]3[C@@H](C(N)=O)[C@@H]4C=C[C@H]3C4)c(Br)cnc2[nH]1 [Compound XCVI, (1S,2S,3R,4R)-3-{6-Bromo-2-[2-methoxy-4-(4-methyl-piperazin-1-yl)-phenyl]-3H-imidazo[4,5-b]pyridin-7-ylamino}-bicyclo[2.2.1]hept-5-ene-2-carboxylic acid amide]
1 to 10 µM	220 to 222 °C	1 to 10 µM	CN1CCN(c2ccc(-c3nc4c(N[C@H]5[C@@H](C(N)=O)[C@@H]6C=C[C@H]5C6)ccnc4[nH]3)cc2)CC1 [Compound LXXXVIII, (1S,2S,3R,4R)-3-{2-[4-(4-Methyl-piperazin-1-yl)-phenyl]-3H-imidazo[4,5-b]pyridin-7-ylamino}-bicyclo[2.2.1]hept-5-ene-2-carboxylic acid amide]
< 0.1 µM	205 to 208 °C	< 0.1 µM	COc1cc(CN2CC[C@H](O)C2)ccc1-c1nc2c(N[C@H]3[C@@H](C(N)=O)[C@@H]4C=C[C@H]3C4)c(Cl)cnc2[nH]1 [Compound LV, (1S,2S,3R,4R)-3-{6-Chloro-2-[4-((S)-3-hydroxy-pyrrolidin-1-ylmethyl)-2-methoxyphenyl]-3H-imidazo[4,5-b]pyridine-7-ylamino}-bicyclo[2.2.1]hept-5-ene-2-carboxylic acid amide]
0.1 to 1 µM	199 to 200 °C	1 to 10 µM	COc1ccc(-c2nc3c(N[C@H]4[C@@H](C(N)=O)[C@@H]5C=C[C@H]4C5)c(Cl)cnc3[nH]2)c(C2CCNCC2)c1 [Compound XXX, (1S,2S,3R,4R)-3-[6-Chloro-2-(4-methoxy-2-piperidin-4-yl-phenyl)-3H-imidazo[4,5-b]pyridine-7-ylamino]-bicyclo[2.2.1]hept-5-ene-2-carboxylic acid amide]
1 to 10 µM	240 to 244 °C	> 10 µM	NC(=O)[C@@H]1[C@H](Nc2ccnc3[nH]c(-c4ccc(N5CCOCC5)cc4)nc23)[C@H]2C=C[C@@H]1C2 [Compound LXXXIX, (1S,2S,3R,4R)-3-[2-(4-Morpholin-4-yl-phenyl)-3H-imidazo[4,5-b]pyridin-7-ylamino]-bicyclo[2.2.1]hept-5-ene-2-carboxylic acid amide]
< 0.1 µM	232 to 234 °C	< 0.1 µM	NC(=O)[C@@H]1[C@H](Nc2c(Br)cnc3[nH]c(-c4cccc(N5CCOCC5)c4)nc23)[C@H]2C=C[C@@H]1C2 [Compound LXXXIII, (1S,2S,3R,4R)-3-[6-Bromo-2-(3-morpholin-4-yl-phenyl)-3H-imidazo[4,5-b]pyridin-7-ylamino]-bicyclo[2.2.1]hept-5-ene-2-carboxylic acid amide]
< 0.1 µM	> 250 °C	< 0.1 µM	NC(=O)[C@@H]1[C@H](Nc2c(Cl)cnc3[nH]c(-c4ccc5c(c4)CCC4(CCNCC4)O5)nc23)[C@H]2C=C[C@@H]1C2 [Compound CXV, (1S,2S,3R,4R)-3-[(6-chloro-2-spiro[chromane-2,4′-piperidine]-6-yl-3H-imidazo[4,5-b]pyridin-7-yl)amino]bicyclo[2.2.1]hept-5-ene-2-carboxamide]
< 0.1 µM	209 to 211 °C	< 0.1 µM	COc1cc(C2CCN(C[C@@H](O)CO)CC2)ccc1-c1nc2c(N[C@H]3[C@@H](C(N)=O)[C@@H]4C=C[C@H]3C4)c(Cl)cnc2[nH]1 [Compound CXVIII, (1S,2S,3R,4R)-3-(6-Chloro-2-{4-[1-((R)-2,3-dihydroxy-propyl)-piperidin-4-yl]-2-methoxy-phenyl}-3H-imidazo[4,5-b]pyridin-7-ylamino)-bicyclo[2.2.1]hept-5-ene-2-carboxylic acid amide]
< 0.1 µM	218 to 220 °C	< 0.1 µM	COc1cc(N(C)C)ccc1-c1nc2c(N[C@H]3[C@@H](C(N)=O)[C@@H]4C=C[C@H]3C4)c(Br)cnc2[nH]1 [Compound LXXXIV, (1S,2S,3R,4R)-3-[6-Bromo-2-(4-dimethylamino-2-methoxy-phenyl)-3H-imidazo[4,5-b]pyridin-7-ylamino]-bicyclo[2.2.1]hept-5-ene-2-carboxylic acid amide]
< 0.1 µM	255 to 258 °C	0.1 to 1 µM	Cn1cc(-c2nc3c(N[C@H]4[C@@H](C(N)=O)[C@@H]5C=C[C@H]4C5)c(Br)cnc3[nH]2)cn1 [Compound LXXXV, (1S,2S,3R,4R)-3-[6-Bromo-2-(1-methyl-1H-pyrazol-4-yl)-3H-imidazo[4,5-b]pyridin-7-ylamino]-bicyclo[2.2.1]hept-5-ene-2-carboxylic acid amide]
